Results published in ChEMBL document CHEMBL3774331, “Inhibition of tau aggregation using a naturally-occurring cyclic peptide scaffold” (Eur J Med Chem, 2016).
The source made the active and inactive calls. No cut-off for these calls is given here. Where a SMILES comes first, the peptide text is derived from it. Bridges are numbered along the chain shown (N, C = ends).

Columns and labels:
[1] = Binding affinity to thioflavin S at compound:AcPHF6 ratio of 1:1 to 1:64 incubated for 120 mins by fluorescence assay
[2] = Inhibition of TAU derived synthetic hexapeptide AcPHF6 fibril formation incubated for 120 mins by thioflavin S fluorescence assay
[3] = Inhibition of TAU derived synthetic hexapeptide AcPHF6 fibril formation at compound:AcPHF6 ratio of 1:1 to 1:64 incubated for 60 mins by thioflavin S fluorescence assay
[4] = Binding affinity to thioflavin S at compound:AcPHF6 ratio of 1:1 incubated for 120 mins by fluorescence assay

Activity [1]	inhibition [2]	inhibition [3]	Activity [4]	SMILES
inactive	Dose-dependent effect	Active		CC[C@H](C)[C@@H]1NC(=O)[C@@H]2CCCN2C(=O)[C@@H]2CCCN2C(=O)[C@H]([C@@H](C)CC)NC(=O)[C@H](CO)NC(=O)[C@H](CCCCN)NC(=O)[C@H]([C@@H](C)O)NC(=O)[C@@H]2CSSC[C@H](NC1=O)C(=O)N[C@@H](Cc1ccccc1)C(=O)N1CCC[C@H]1C(=O)N[C@@H](CC(=O)O)C(=O)NCC(=O)N[C@@H](CCCNC(=N)N)C(=O)N2
		Active	Active	CC[C@H](C)[C@@H]1NC(=O)[C@H](CCC(N)=O)NC(=O)[C@H](C(C)C)NC(=O)CNC(=O)[C@H](CC(=O)O)NC(=O)[C@@H]2CCCN2C(=O)[C@H](C(C)C)NC(=O)[C@H](C)NC(=O)[C@H](Cc2ccccc2)NC(=O)[C@@H]2CSSC[C@H](NC1=O)C(=O)N[C@@H](Cc1ccc(O)cc1)C(=O)N[C@@H](CCCCN)C(=O)N[C@@H](CO)C(=O)N[C@@H]([C@@H](C)CC)C(=O)N1CCC[C@H]1C(=O)N1CCC[C@H]1C(=O)N[C@@H]([C@@H](C)CC)C(=O)N2 (cyclo(AVPDGVQICYKSIPPICF); disulfide 9-17)
